“Also recorded” adds a separate entry of the source.
Columns and labels:
[1] = tested on: RGCs in WT retina; experiment: MEA recording of photoswitch (QAQ, BENAQ) photosensitization in WT retina; type: in vivo, mouse; conditions: WT retina, 3-7 days after intravitreal injection
Description: (§1) Intravitreal Injections. Before injection, mice were anesthetized with isoflurane (2%) and their pupils were dilated with tropicamide (1%) and phenylephrine (2.5%). Proparacaine (0.5%) was used as a topical analgesic. Genteal was applied under a glass coverslip to keep the cornea lubricated. An incision was made through the sclera below the ora serrata with a 30G needle and ˜1 μl of solution was injected into the vitreous with a blunt-ended 33G Hamilton syringe. After injection, the antibiotic tobramycin (0.3%) was applied to the eye. Final drug concentrations after intravitreal injection were: all-trans retinoic acid (ATRA, 100 nM), liarozole (100 μM), diethylaminobenzaldehyde (DEAB, 20 μM), citral (50 μM), BMS-493 (500 nM), and retinaldehyde (1 μM). The above values correspond to the final concentration in the eye after injecting 1 μl of drug accounting for a 5-fold dilution. An injection of PBS including 1% DMSO was used as vehicle control.
(§2) Multi Electrode Array Recordings. For extracellular recordings, a flat-mounted retina was placed ganglion cell layer down onto a 60-electrode Multi-Electrode Array (MEA 1060-2-BC, Multi-Channel Systems). After mounting the retina, photoswitches were applied for 30 min, followed by a 15 min wash. BENAQ was applied at a concentration of 100 μM and QAQ at 300 μM. A solution containing a mixture of neurotransmitter receptor blockers isolated RGCs from synaptic inputs: (in μM) 10 AP4, 40 DNQX, 30 AP5, 10 SR-95531, 50 TPMPA, 10 strychnine, and 50 tubocurarine. Extracellular spikes were high-pass filtered at 200 Hz and digitized at 20 kHz and were counted when exceeding 4 SD from the mean background voltage signal. Typically, each electrode recorded spikes from one to three individual RGCs. Principal component analysis of the spike waveforms was used for sorting spikes generated by individual cells (Offline Sorter, Plexon). Stimulation light was generated from a mercury arc lamp. Unfiltered broad spectrum light was used for BENAQ-treated retinas. Narrow band optical filters (Chroma) were used to deliver alternating intervals of 380 nm and 500 nm for stimulation of QAQ-treated as described previously (5,12). The Photoswitch Index (5) (PI) was established for individual retinas in light/darkness for treatment with BENAQ or in 380 nm/500 nm light for treatment with QAQ (11,12).
(§3) Injections. Intravitreal injections: Adult mice and rats were intravitreally injected with drugs or viruses. Before injection, animals were anesthetized with isoflurane (2%) and their pupils were dilated with tropicamide (1%) and phenylephrine (2.5%). Proparacaine (0.5%) was used as a topical analgesic. Genteal was applied under a glass coverslip to keep the cornea lubricated. An incision was made through the sclera below the ora serrata with a 30G needle. Solutions were injected into the vitreous with a blunt-ended 33G Hamilton syringe. After injection, the antibiotic tobramycin (0.3%) was applied to the eye. Final drug concentrations (after 5-fold dilution in the vitreous) were: 100 nM all-trans retinoic acid (ATRA), 100 μM liarozole (24), 20 μM diethylaminobenzaldehyde (DEAB) (28,93), 50 μM citral, 500 nM BMS 493 (85), 1 μM retinaldehyde, and vehicle comprising of 1× phosphate buffered saline (PBS) containing 1% dimethyl sulfoxide (DMSO). Intravitreal injections were performed using AAV2 serotype only. WT and rd1 mice were injected with the RAR-reporter virus or the RARDN virus, at age 1-1.5 month-old. WT and s334ter rats were injected with the RAR-reporter virus at age 3-4 month-old. Final volume of injections was 1-1.5 μL for mice and 5 μL for rats.
Multi Electrode Array Recordings. Flat-mounted retina was placed ganglion cell layer down onto a 60-electrode Multi-Electrode Array (MEA 1060-2-BC, Multi-Channel Systems). After mounting the retina was left to dark adapt for 20 minutes under constant perfusion with oxygenated saline at 34° C. 300 μM QAQ at was applied for 30 min, followed by a 5 min wash. […]

[2] = tested on: RAR; experiment: RAR dual fluorescent reporter (RARE-SV40-GFP / CMV-RFP) in HEK293 cells; type: cell-based, human
[3] = tested on: retinal neurons (photoreceptors); experiment: TUNEL assay after intravitreal injection; type: in vivo, mouse; conditions: WT, 5-6 days after intravitreal injection, ATRA 100 nM
Source text: Immunolabeling and TUNEL assay. S334ter rat retinas infected with the RARE double reporter were dissected, fixed and frozen, as previously described (54). The tissue was cut in 14 μm thick cross-sections using a Leica cryostat. Immunocytochemical solution (ICC) was composed of standard 1×PBS (Gibco), 2.5% BSA (Sigma) and 0.1% Triton (Sigma). The tissue was blocked using ICC solution supplemented with unconjugated rabbit anti-mouse secondary antibody (Life Technologies) at RT for 1 hr. Slides were incubated with primary mouse anti-GFP antibody (#JL8, Clontech), with no RFP cross-reactivity, at 4° C. ON. An Alexa Fluor-488 conjugated goat anti-mouse secondary antibody (Life Technologies) was used at RT for 1 hr in the dark. The same procedure was carried out for detection of RARβ in mouse retinas following injection of vehicle or ATRA. Slides were incubated with a primary rabbit anti-RARβ antibody (ab53161, Abcam) and detected using an Alexa Fluor-488 conjugated goat anti-rabbit secondary antibody (Life Technologies). TUNEL assay (In Situ Cell Death Detection Kit, Roche) was carried out per manufacturer's instructions. Retinas were collected 5-6 days following injection with vehicle, ATRA, or ATRA and Liarozole.
TUNEL assay. TUNEL assay (In Situ Cell Death Detection Kit, Roche) was carried out per manufacturer's instructions. […]

[4] = tested on: RGCs in rd1 retina; experiment: MEA recording of photoswitch (QAQ, BENAQ) photosensitization in rd1 retina; type: in vivo, mouse
Description: as §1, §2
as §3, with “WT and s334ter rats were injected with the RAR-reporter virus at age 3-4 month-old. Final volume of injections was 1-1.5 μL for mice and 5 μL for rats.” left out

[5] = tested on: RGCs in rd1 retina; experiment: MEA recording of RGC spontaneous activity in darkness, rd1 retina; type: in vivo, mouse
Description: as §1
Multi Electrode Array Recordings. For extracellular recordings, a flat-mounted retina was placed ganglion cell layer down onto a 60-electrode Multi-Electrode Array (MEA 1060-2-BC, Multi-Channel Systems). […] Extracellular spikes were high-pass filtered at 200 Hz and digitized at 20 kHz and were counted when exceeding 4 SD from the mean background voltage signal. Typically, each electrode recorded spikes from one to three individual RGCs. […]

Row | Compound | QAQ photosensitization of WT retina, in words [1] | Photoswitch Index (PI) with QAQ ([1]; QAQ 300 μM, mean±SEM) | GFP expression of the RAR reporter ([2]; HEK293, ATRA 1 μM, 48 hrs) | increase in GFP to RFP ratio ([2]; HEK293, different doses and times of ATRA, with 100 μM liarozole) | cell death / toxicity (TUNEL) [3] | QAQ photosensitization of rd1 retina, in words ([4]; rd1 mice injected intravitreally with BMS-493) | Photoswitch Index (PI) with BENAQ ([4]; rd1 retina treated with BMS-493 (intravitreal, 3-7 days), BENAQ, white light/darkness, mean±SEM) | Photoswitch Index (PI) with QAQ ([4]; rd1 retina treated with BMS-493 (intravitreal, 3-7 days), QAQ 300 μM, 380/500 nm, mean±SEM) | spontaneous firing of rd1 RGCs (mean Firing Rate) ([5]; rd1, 3-7 days after a single intravitreal injection of BMS-493, control 5.13±0.74 Hz) | spontaneous firing rates versus controls, in words ([5]; rd1 retina, BMS-493 0.5 μM 3-7 days before, or AAV2-RARDN injected at P30, recorded at P90)
1 | CC1=C(/C=C/C(C)=C/C=C/C(C)=C/C(=O)O)C(C)(C)CCC1 [ATRA, all-trans retinoic acid] | Neither ATRA nor liarozole alone enabled significant QAQ photosensitization | 0.1±0.05 | significant increase in GFP expression only following ATRA treatment; also recorded: induced GFP expression | dose- and time-dependent | does not cause retinal neuron degeneration; also recorded: non-toxic; also recorded: no cell death | – | – | – | – | –
2 | CC1(C)CC=C(C#Cc2ccccc2)c2cc(/C=C/c3ccc(C(=O)O)cc3)ccc21 [BMS-493] | – | – | – | – | – | prevented QAQ photosensitization | 0.35±0.05 | 0.15±0.06 | 2.67±0.33 Hz | significantly lower

Reference: US20240398738A1, “MANIPULATION OF THE RETINOIC ACID SIGNALING PATHWAY” (THE REGENTS OF THE UNIVERSITY OF CALIFORNIA, priority 2017, published 2024)
